Laboratory results as given in ChEMBL document CHEMBL5625268, “Identification of novel benzothiazole derivatives as inhibitors of NEDDylation pathway to inhibit the progression of gastric cancer” (Bioorg Med Chem Lett, 2024).

Experiments:
A549 = experiment: Antiproliferative activity against human A549 cells by CCK8 assay; assay type: functional, cell-based
MGC-803 = experiment: Antiproliferative activity against human MGC-803 cells by CCK8 assay; assay type: functional, cell-based
KYSE-30 = experiment: Antiproliferative activity against human KYSE-30 cells by CCK8 assay; assay type: functional, cell-based
MCF7 = experiment: Antiproliferative activity against human MCF7 cells by CCK8 assay; assay type: functional, cell-based
[1] = target: T1, NEDD8-activating enzyme E1 regulatory subunit (Homo sapiens, UniProt Q13564); experiment: Inhibition of NAE (unknown origin)
T1 sequence (Q13564 whole entry): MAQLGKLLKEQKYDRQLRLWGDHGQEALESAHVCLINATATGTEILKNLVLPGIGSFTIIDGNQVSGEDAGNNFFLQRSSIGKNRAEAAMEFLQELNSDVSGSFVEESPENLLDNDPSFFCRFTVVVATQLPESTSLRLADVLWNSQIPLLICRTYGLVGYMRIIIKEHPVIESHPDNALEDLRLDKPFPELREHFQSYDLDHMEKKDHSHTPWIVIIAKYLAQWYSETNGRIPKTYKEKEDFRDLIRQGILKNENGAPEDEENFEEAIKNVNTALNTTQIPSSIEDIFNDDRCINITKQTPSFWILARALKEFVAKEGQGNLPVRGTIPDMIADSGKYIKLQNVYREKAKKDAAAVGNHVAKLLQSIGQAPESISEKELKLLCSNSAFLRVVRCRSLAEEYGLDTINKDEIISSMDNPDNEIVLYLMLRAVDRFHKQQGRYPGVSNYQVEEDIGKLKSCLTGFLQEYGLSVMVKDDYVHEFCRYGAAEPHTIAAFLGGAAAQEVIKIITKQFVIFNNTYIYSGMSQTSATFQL

Compound	IC50 (A549) [µM]	IC50 (MGC-803) [µM]	IC50 (MCF7) [µM]	IC50 [1] [µM]	IC50 (KYSE-30) [nM]
NS(=O)(=O)OC[C@@H]1C[C@@H](n2ccc3c(N[C@H]4CCc5ccccc54)ncnc32)C[C@@H]1O [PEVONEDISTAT]	1.64	1.84	–	–	3750
O=C(Nc1nc2ccc(NC(=O)C3CCN(Cc4ccccc4)CC3)cc2s1)c1ccc(C(F)(F)F)cc1	6.29	8.53	4.58	–	1250
O=C(Nc1nc2ccc(NC(=O)C3CCN(Cc4ccccc4)CC3)cc2s1)c1ccc(Cl)o1	2.82	1.75	1.88	–	1900
CCCc1ccc(C(=O)Nc2nc3ccc(NC(=O)C4CCN(Cc5ccccc5)CC4)cc3s2)cc1	1.28	1.87	1.55	–	910
COc1ccccc1/C=C1\SC(=O)N(CCC(=O)Nc2ccc(S(N)(=O)=O)cc2)C1=O	–	–	–	12	–
O=C(Nc1nc2ccc(NC(=O)C3CCN(Cc4ccccc4)CC3)cc2s1)c1ccc(F)cc1Cl	3.77	10.7	15.9	–	2080
O=C(Nc1nc2ccc(NC(=O)C3CCN(Cc4ccccc4)CC3)cc2s1)c1ccc2ccccc2c1	7.25	8.76	11.9	–	3000
COc1cc(C(=O)Nc2nc3ccc(NC(=O)C4CCN(Cc5ccccc5)CC4)cc3s2)cc(OC)c1OC	5.6	4.96	4.15	–	1080
O=C(Nc1nc2ccc(NC(=O)C3CCN(Cc4ccccc4)CC3)cc2s1)c1ccc(F)c(F)c1	5.58	6.85	8.54	–	1820
C/C=C/C(=O)Nc1nc2ccc(NC(=O)C3CCN(Cc4ccccc4)CC3)cc2s1	12.8	15.7	11.9	–	17700
O=C(Nc1nc2ccc(NC(=O)C3CCN(Cc4ccccc4)CC3)cc2s1)c1ccc(-c2ccccc2)cc1	8.13	7.84	10.7	–	2880
O=C(Nc1ccc2nc(NC(=O)C3COc4ccccc4O3)sc2c1)C1CCN(Cc2ccccc2)CC1 (stereo not given)	11.4	11	11.7	–	13800
CCOc1cccc(F)c1C#Cc1cn([C@H]2O[C@@H](CNS(N)(=O)=O)[C@H](O)[C@@H]2O)c2ncnc(N)c12	–	–	–	0.004	–
O=C(Nc1nc2ccc(NC(=O)C3CCN(Cc4ccccc4)CC3)cc2s1)c1sccc1Br	2.47	3.31	2.89	–	2630
Nc1ccc(SCC(=O)Nc2ccc3nc(NC(=O)c4ccc(C(F)(F)F)cc4)sc3c2)cc1	41.2	4.91	> 100	–	17400
CCCC(=O)Nc1nc2ccc(NC(=O)C3CCN(Cc4ccccc4)CC3)cc2s1	29.1	30.1	37.5	–	22700
O=C(Nc1nc2ccc(NC(=O)C3CCN(Cc4ccccc4)CC3)cc2s1)c1sccc1F	1.99	2.8	2.35	–	2030
O=C(Nc1nc2ccc(NC(=O)C3CCN(Cc4ccccc4)CC3)cc2s1)c1cscn1	1.19	1.69	0.98	–	730
O=C(Nc1nc2ccc(NC(=O)C3CCN(Cc4ccccc4)CC3)cc2s1)c1ccc2c(c1)OCO2	1.35	1.85	1.63	–	1330

Further lines, with some results ahead:

IC50 (A549) [µM]	IC50 (MGC-803) [µM]	IC50 (MCF7) [µM]	IC50 [1] [µM]	Compound	IC50 (KYSE-30) [nM]
2.18	3.82	2.78	–	Cc1ccc(C(=O)Nc2nc3ccc(NC(=O)C4CCN(Cc5ccccc5)CC4)cc3s2)cc1	1190
4.51	12.7	5.74	–	O=C(Nc1nc2ccc(NC(=O)C3CCN(Cc4ccccc4)CC3)cc2s1)c1ccc(F)cc1	1080
4.33	10.9	4.17	–	O=C(Nc1nc2ccc(NC(=O)C3CCN(Cc4ccccc4)CC3)cc2s1)c1ccccc1	3220
20.4	25.6	23.9	–	O=C(Nc1nc2ccc(NC(=O)C3CCN(Cc4ccccc4)CC3)cc2s1)c1cccnc1	19600
3.31	4.74	13.1	–	N#Cc1ccc(C(=O)Nc2nc3ccc(NC(=O)C4CCN(Cc5ccccc5)CC4)cc3s2)cc1	1410
4.94	13	7.32	–	O=C(Nc1nc2ccc(NC(=O)C3CCN(Cc4ccccc4)CC3)cc2s1)c1cccc(F)c1	1710
4.25	5.09	7.46	–	O=C(Nc1nc2ccc(NC(=O)C3CCN(Cc4ccccc4)CC3)cc2s1)c1ccco1	7410
1.7	2.77	3.24	–	O=C(Nc1nc2ccc(NC(=O)C3CCN(Cc4ccccc4)CC3)cc2s1)c1cccs1	1640
5.26	12.9	11.4	–	O=C(Nc1nc2ccc(NC(=O)C3CCN(Cc4ccccc4)CC3)cc2s1)c1ccccc1F	2290
